Results published in patent publication US11725020B2, “Prodrugs of a CDK inhibitor for treating cancers” (priority 2019, dated 2023).
“Also recorded” adds a separate entry of the source.

How the values were obtained:
[1] = Toxicokinetic study in rats: TK study, plasma AT7519 concentration; format: in vivo, Male SD (Sprague Dawley) rats; conditions: male, Sprague-Dawley, iv; rat plasma, I.V., 0.039 mmol/kg
Protocol: (§1) Male SD (Sprague Dawley) rats of body weight 220 to 240 g were maintained under standard conditions and randomized into three groups. On day 0 (initial day), all the animals were given one of the three compounds intravenously. Dose was calculated in mmol/kg.
(b) TK study: The remaining animals were randomized into three groups, with 6 in each group. […] TK analysis was conducted as follows: Blood samples were collected at time points of 2 min, 10 min, 1 h, 2 h, and 6 h into sample tube (heparinized).

[2] = system: non-CDK kinases; conditions: with the exception of GSK3β; cited from earlier work
[3] = human, in vivo; cited from earlier work
[4] = Toxicokinetic study in rats: dose exploration; format: in vivo, Male SD (Sprague Dawley) rats; conditions: rat, i.v., one animal
Protocol: as §1
(a) Dose exploration: One animal from each group was given the preset high dose of each compound.

[5] = system: SW620; conditions: read-out: antiproliferative IC50; cited from earlier work
[6] = system: human MM xenograft; conditions: 15 mg/kg; cited from earlier work
[7] = 32.4 mg/m^2; cited from earlier work
[8] = system: HCT116 colon cancer xenograft; conditions: 9.1 mg/kg twice daily, early-stage and advanced-stage s.c. tumors; cited from earlier work
[9] = system: MCF-7; conditions: read-out: antiproliferative IC50; cited from earlier work
[10] = Toxicity study in mice: body weight after a single i.v. dose; format: in vivo, Male mice (BABL/c)
Protocol: (§2) Male mice (BABL/c) of 20 to 22 g were maintained under standard conditions and randomized into groups. […] Doses were calculated and expressed in mmol/kg-body weight, and drug tolerability, pharmacokinetics, and body weight effect were assessed.
Clinical observations were made in the following schedule: continuous observation in the first four hours after dosing, and then twice daily, at one week time, and at day 14. The parameters for observation included animal's physical and mental behaviors, autonomous activity, hair, gland secretion, feces, and death. Body temperature was taken at pre-dosing, and on days 3, 5, 7, and 10 post-dosing.
The body weights of the animals are summarized in Table 4, and the trend lines for animal body weight changes in each group are given in FIG. 2. The body weight was average weight of all the animals in the group from a single measurement.

[11] = system: MM.1S; conditions: 48 hours, read-out: cytotoxicity IC50; cited from earlier work
[12] = Toxicity study in mice: tolerability after i.v. administration; format: in vivo; conditions: for toxicity compared with AT7519: 2-fold (11) and 4-fold (12) molar-equivalents of the AT7519 threshold level
Protocol: as §2

[13] = system: peripheral blood mononuclear cells (PBMNC); conditions: cited from earlier work
[14] = Toxicity study in mice: toxicokinetics, plasma AT7519 concentration; format: in vivo, Male mice (BABL/c); conditions: for plasma AT7519 exposures compared with AT7519 dosing: i.v., compound 11 0.062 mmol/kg, compound 12 0.124 mmol/kg, AT7519 0.031 mmol/kg
Protocol: as §2
Blood samples were collected at 2 min, 10 min, 1 h, and 4 h. Concentration of T7519 was analyzed in each sample using LC-MS/MS method. The results are summarized in Table 3, and the concentration-time curves are illustrated in FIG. 1.

[15] = system: HT29 colon cancer xenograft; conditions: 9.1 mg/kg twice daily, early-stage and advanced-stage s.c. tumors; cited from earlier work
[16] = system: U266; conditions: U266, 48 hours; read-out: cytotoxicity IC50; cited from earlier work
[17] = system: MM.1R; conditions: 48 hours, read-out: cytotoxicity IC50; cited from earlier work
[18] = single i.v. dose 0.031 mmol/kg on day 0, group average
[19] = male, BALB/c, mouse, plasma, iv, I.V., 0.031 mmol/kg
[20] = single i.v. dose 0.062 mmol/kg on day 0, group average
[21] = single i.v. dose 0.124 mmol/kg on day 0, group average

O=C(NC1CCNCC1)c1n[nH]cc1NC(=O)c1c(Cl)cccc1Cl [AT7519, 4-(2,6-Dichlorobenzamido)-N-(4-piperidinyl)-1H-pyrazole-3-carboxamide]
concentration at 2 min [1]: 19100 ng/mL
concentration at 10 min [1]: 4600 ng/mL
concentration at 1 h [1]: 814 ng/mL
concentration at 4 h [1]: 554 ng/mL
concentration at 6 h [1]: 148 ng/mL
activity against all non-CDK kinases [2]: inactive
AEs of CTCAE grade 1 severity [3]: 46.7%
AEs of CTCAE grade 2 severity [3]: 37.8%
patients with at least one treatment-related AE [3]: 82.1%
treatment-emergent AE anorexia [3]: 39.3%
treatment-emergent AE constipation [3]: 32.1%
treatment-emergent AE fatigue [3]: 42.9%
treatment-emergent AE hypotension [3]: 25.0%
treatment-emergent AE nausea [3]: 50.0%
treatment-emergent AE peripheral edema [3]: 25.0%
treatment-emergent AE pyrexia [3]: 25.0%
treatment-emergent AE vomiting [3]: 39.3%
Animal death ([4]; 0.049 mmol/kg): already at their lethal doses; also recorded: Died immediately post-dosing
IC50 [5]: 940 nM
median overall survival [6]: prolong the median overall survival
tumor growth [6]: inhibit tumor growth
DLT among the initial three patients [7]: one patient experienced DLT (grade 3 fatigue)
DLT in two additional patients [7]: both of whom experienced DLTs (febrile neutropenia and grade 3 hypokalemia and mucositis)
effect on tumors [8]: tumor regression
IC50 [9]: 40 nM
Body weight (g) Day 0 [10, 18]: 19.44 g
Body weight (g) Day 1 [10, 18]: 19.53 g
Body weight (g) Day 2 [10, 18]: 19.45 g
Body weight (g) Day 4 [10, 18]: 20.94 g
Body weight (g) Day 7 [10, 18]: 20.83 g
Body weight (g) Day 10 [10, 18]: 20.63 g
IC50 [11]: 500 nM
threshold lethal dose ([12]; male, BALB/c, mouse, in vivo, iv): 0.031 mmol/kg
Death rate (%) ([12]; mice, i.v., 0.031 mmol/kg): 20%
Number of deaths ([12]; mice, i.v., 0.031 mmol/kg, 20 animals in group): 4
Death rate (%) ([12]; mice, i.v., 0.039 mmol/kg): 100%
cytotoxicity in PBMNC [13]: does not induce cytotoxicity
concentration at 2 min [14, 19]: 10200 ng/mL
concentration at 10 min [14, 19]: 1840 ng/mL
concentration at 1 h [14, 19]: 489 ng/mL
concentration at 4 h [14, 19]: 47 ng/mL
effect on tumors [15]: tumor regression
IC50 [16]: 500 nM
IC50 [17]: > 2000 nM

O=C(NC1CCNCC1)c1nn(COP(=O)([O-])[O-])cc1NC(=O)c1c(Cl)cccc1Cl.[Na+].[Na+] [Compound 11]
Animal death ([4]; 0.055 mmol/kg, listed as compound 11, phosphate disodium Salt): already at their lethal doses
Animal death ([4]; 0.055 mmol/kg, phosphate disodium Salt): Died at 2 min post-dosing
Body weight (g) Day 0 [10, 20]: 19.16 g
Body weight (g) Day 1 [10, 20]: 18.58 g
Body weight (g) Day 2 [10, 20]: 18.83 g
Body weight (g) Day 4 [10, 20]: 19.95 g
Body weight (g) Day 7 [10, 20]: 20.16 g
Body weight (g) Day 10 [10, 20]: 20.52 g
Death rate (%) ([12]; mice, i.v., 0.062 mmol/kg): 0%
toxicity compared with AT7519 ([12]; mice, i.v.): much less toxic than AT7519
plasma AT7519 exposures compared with AT7519 dosing [14]: much higher

COC(=O)[C@H](C)NP(=O)(Oc1ccccc1)N1CCC(NC(=O)c2n[nH]cc2NC(=O)c2c(Cl)cccc2Cl)CC1 (stereo partly drawn) [Compound 12, N-((4-(4-(2,6-dichlorobenzamido)-1H-pyrazole-3-carboxamido)-1-piperidinyl)(phenoxy)phosphinyl)-L-alanine methyl Ester]
Animal death ([4]; 0.125 mmol/kg): Behaved normally
Animal death ([4]; 0.125 mmol/kg, listed as compound 12): did not induce the animal death
Body weight (g) Day 0 [10, 21]: 19.75 g
Body weight (g) Day 1 [10, 21]: 18.70 g
Body weight (g) Day 2 [10, 21]: 19.17 g
Body weight (g) Day 4 [10, 21]: 19.95 g
Body weight (g) Day 7 [10, 21]: 20.79 g
Body weight (g) Day 10 [10, 21]: 21.30 g
Death rate (%) ([12]; mice, i.v., 0.124 mmol/kg): 0%
toxicity compared with AT7519 ([12]; mice, i.v.): much less toxic than AT7519
plasma AT7519 exposures compared with AT7519 dosing [14]: much higher
